Measured values: PMC9186362, “Design and biological evaluation of substituted 5,7-dihydro-6H-indolo[2,3-c]quinolin-6-one as novel selective Haspin inhibitors” (Journal of Enzyme Inhibition and Medicinal Chemistry, 2022)

What was measured:
Experiment in all cases: SelectScreen ZLYTE
Format in all cases: biochemical
Details in all cases: ATP Km, read-out: Percentage of inhibition
IKBKE (IKK epsilon) = biological target: T1, IKBKE (IKK epsilon) (Homo sapiens, UniProt Q14164)
T1 construct: purchased Life Technologies (SelectScreen Whole Panel service)
Experimental: (§1) We further evaluated the selectivity profile of compound 55 on a larger panel of kinases (SelectScreen Whole Panel, Life Technologies). The inhibition profile of 55, evaluated at 1 μM, is depicted on a dendrogram on Figure 3 where kinases inhibited by a minimum of 80% are shown. A full list of the kinases tested is shown on Table S1 in supplementary information.

CSNK1D (CK1 delta) = biological target: T2, CSNK1D (CK1 delta) (Homo sapiens, UniProt P48730)
T2 construct: purchased Life Technologies (SelectScreen service)
Experimental: as §1

HIPK2 = biological target: T3, HIPK2 (Homo sapiens, UniProt Q9H2X6)
T3 construct: purchased Life Technologies (SelectScreen service)
Experimental: as §1

CHEK1 (CHK1) = CHEK1 (CHK1) (Homo sapiens, UniProt O14757)
Chain of CHEK1 (CHK1) (O14757 whole entry): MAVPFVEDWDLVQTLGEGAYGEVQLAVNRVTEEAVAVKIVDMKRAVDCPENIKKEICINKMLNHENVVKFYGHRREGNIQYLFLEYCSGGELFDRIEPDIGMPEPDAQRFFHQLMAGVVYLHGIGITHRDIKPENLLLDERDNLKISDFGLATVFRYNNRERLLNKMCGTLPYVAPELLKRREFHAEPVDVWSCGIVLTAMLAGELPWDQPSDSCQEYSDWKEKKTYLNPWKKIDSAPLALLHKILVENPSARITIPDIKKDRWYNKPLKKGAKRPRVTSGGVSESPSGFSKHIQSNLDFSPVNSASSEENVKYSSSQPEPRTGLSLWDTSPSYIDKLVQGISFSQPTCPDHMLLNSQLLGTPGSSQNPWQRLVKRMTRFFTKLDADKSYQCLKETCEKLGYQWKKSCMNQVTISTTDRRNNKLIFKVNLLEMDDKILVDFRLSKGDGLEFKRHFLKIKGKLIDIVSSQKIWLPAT
Experimental: as §1

ALK = biological target: T4, ALK (Homo sapiens, UniProt Q9UM73)
T4 construct: purchased Life Technologies (SelectScreen service)
Experimental: as §1

ERBB2 (HER2) = biological target: T5, ERBB2 (HER2) (Homo sapiens, UniProt P04626)
T5 construct: purchased Life Technologies
Experimental: as §1

EPHB2 = EPHB2 (Homo sapiens, UniProt P29323)
Chain of EPHB2 (P29323 19-1055): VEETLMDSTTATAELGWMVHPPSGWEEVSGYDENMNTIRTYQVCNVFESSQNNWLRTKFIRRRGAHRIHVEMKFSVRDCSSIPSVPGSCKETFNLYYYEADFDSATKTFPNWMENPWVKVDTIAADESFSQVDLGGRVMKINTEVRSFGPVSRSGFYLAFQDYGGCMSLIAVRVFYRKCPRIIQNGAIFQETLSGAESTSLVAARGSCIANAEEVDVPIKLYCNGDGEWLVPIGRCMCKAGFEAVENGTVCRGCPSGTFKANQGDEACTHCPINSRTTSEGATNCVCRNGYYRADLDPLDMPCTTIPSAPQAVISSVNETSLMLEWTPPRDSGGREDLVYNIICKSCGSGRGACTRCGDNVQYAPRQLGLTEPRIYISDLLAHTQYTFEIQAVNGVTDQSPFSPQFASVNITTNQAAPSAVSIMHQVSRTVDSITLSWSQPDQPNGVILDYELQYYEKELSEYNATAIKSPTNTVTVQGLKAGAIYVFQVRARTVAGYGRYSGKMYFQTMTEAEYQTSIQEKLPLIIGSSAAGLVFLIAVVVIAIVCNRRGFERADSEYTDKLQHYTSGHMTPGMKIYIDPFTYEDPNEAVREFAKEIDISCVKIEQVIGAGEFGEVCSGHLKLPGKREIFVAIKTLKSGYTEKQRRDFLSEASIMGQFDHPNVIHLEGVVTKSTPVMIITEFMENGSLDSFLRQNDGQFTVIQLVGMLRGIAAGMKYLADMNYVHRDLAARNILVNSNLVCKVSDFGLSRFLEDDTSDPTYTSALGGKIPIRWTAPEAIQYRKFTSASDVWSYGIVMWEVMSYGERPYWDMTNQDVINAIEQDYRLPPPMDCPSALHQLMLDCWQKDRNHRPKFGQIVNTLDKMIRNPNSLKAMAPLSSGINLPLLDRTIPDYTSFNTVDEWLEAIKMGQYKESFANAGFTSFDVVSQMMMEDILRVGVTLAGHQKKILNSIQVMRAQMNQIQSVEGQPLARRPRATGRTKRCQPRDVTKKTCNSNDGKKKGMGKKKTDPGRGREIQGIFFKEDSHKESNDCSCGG
Experimental: as §1

RPS6KA3 (RSK2) = biological target: T6, RPS6KA3 (RSK2) (Homo sapiens, UniProt P51812)
T6 construct: purchased Life Technologies (SelectScreen service)
Experimental: as §1

RET Y791F = biological target: T7, RET Y791F (Homo sapiens, UniProt P07949, Y791F)
T7 construct: purchased Life Technologies
Experimental: as §1

ACVR1B (ALK4) = biological target: T8, ACVR1B (ALK4) (Homo sapiens, UniProt P36896)
T8 construct: purchased Life Technologies (SelectScreen Whole Panel)
T8 sequence (P36896 24-505): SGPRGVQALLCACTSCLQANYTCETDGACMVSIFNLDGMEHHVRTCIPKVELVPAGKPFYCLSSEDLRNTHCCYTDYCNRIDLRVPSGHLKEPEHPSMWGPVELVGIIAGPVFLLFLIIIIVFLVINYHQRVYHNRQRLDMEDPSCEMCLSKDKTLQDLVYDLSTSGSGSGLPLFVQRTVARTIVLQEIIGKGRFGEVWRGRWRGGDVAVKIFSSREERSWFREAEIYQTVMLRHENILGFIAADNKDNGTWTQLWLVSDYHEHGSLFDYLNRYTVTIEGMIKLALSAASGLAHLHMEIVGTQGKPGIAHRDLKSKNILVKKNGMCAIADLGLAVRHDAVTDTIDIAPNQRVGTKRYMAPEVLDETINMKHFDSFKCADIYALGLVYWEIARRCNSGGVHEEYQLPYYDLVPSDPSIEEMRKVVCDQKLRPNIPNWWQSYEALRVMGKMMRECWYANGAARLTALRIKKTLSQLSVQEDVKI
Experimental: as §1

PTK2B (FAK2) = biological target: T9, PTK2B (FAK2) (Homo sapiens, UniProt Q14289)
T9 construct: purchased Life Technologies (SelectScreen Whole Panel service)
Experimental: as §1

FER = FER (Homo sapiens, UniProt P16591)
Experimental: as §1

HIPK3 (YAK1) = biological target: T10, HIPK3 (YAK1) (Homo sapiens, UniProt Q9H422)
T10 construct: purchased Life Technologies
Experimental: as §1

SRC = biological target: T11, SRC (Homo sapiens, UniProt P12931)
T11 construct: purchased Life Technologies
Experimental: as §1

JAK2 = biological target: T12, JAK2 (Homo sapiens, UniProt O60674)
T12 construct: purchased Life Technologies (SelectScreen Whole Panel)
Experimental: as §1

PRKCN (PKD3) = biological target: T13, PRKCN (PKD3) (Homo sapiens, UniProt O94806)
T13 construct: purchased Life Technologies
Experimental: as §1

DYRK4 = biological target: T14, DYRK4 (Homo sapiens, UniProt Q9NR20)
T14 construct: purchased Life Technologies
Experimental: as §1

TYK2 = biological target: T15, TYK2 (Homo sapiens, UniProt P29597)
T15 construct: purchased Life Technologies (SelectScreen Whole Panel)
Experimental: as §1

STK3 (MST2) = biological target: T16, STK3 (MST2) (Homo sapiens, UniProt Q13188)
T16 construct: purchased Life Technologies (SelectScreen Whole Panel)
Experimental: as §1

TNK1 = biological target: T17, TNK1 (Homo sapiens, UniProt Q13470)
T17 construct: purchased Life Technologies
Experimental: as §1

AXL = biological target: T18, AXL (Homo sapiens, UniProt P30530)
T18 construct: purchased Life Technologies
Experimental: as §1

RET V804L = biological target: T19, RET V804L (Homo sapiens, UniProt P07949, V804L)
T19 construct: purchased Life Technologies
Experimental: as §1

JAK2 JH1 JH2 = biological target: T20, JAK2 JH1 JH2 (Homo sapiens, UniProt O60674)
T20 construct: JAK2 JH1 JH2; purchased Life Technologies
T20 sequence (O60674 532-1132 limits assumed): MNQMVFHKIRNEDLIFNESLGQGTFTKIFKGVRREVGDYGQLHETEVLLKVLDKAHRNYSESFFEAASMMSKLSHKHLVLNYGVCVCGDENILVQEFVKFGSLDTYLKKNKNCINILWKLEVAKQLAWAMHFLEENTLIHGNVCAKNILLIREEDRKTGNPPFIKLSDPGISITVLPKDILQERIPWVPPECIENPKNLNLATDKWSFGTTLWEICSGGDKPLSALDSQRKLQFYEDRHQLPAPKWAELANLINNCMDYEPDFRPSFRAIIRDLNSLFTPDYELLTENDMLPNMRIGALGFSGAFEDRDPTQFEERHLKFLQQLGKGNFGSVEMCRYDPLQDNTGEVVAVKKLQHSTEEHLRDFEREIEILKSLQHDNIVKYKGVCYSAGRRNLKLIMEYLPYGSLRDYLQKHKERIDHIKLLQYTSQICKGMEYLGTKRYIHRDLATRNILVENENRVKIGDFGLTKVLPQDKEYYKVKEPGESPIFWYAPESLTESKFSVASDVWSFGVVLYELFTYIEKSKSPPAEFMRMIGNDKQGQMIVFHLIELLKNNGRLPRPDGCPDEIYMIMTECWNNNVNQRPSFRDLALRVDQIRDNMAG
Experimental: as §1

NTRK3 (TRKC) = biological target: T21, NTRK3 (TRKC) (Homo sapiens, UniProt Q16288)
T21 construct: purchased Life Technologies
Experimental: as §1

PRKCI (PKC iota) = PRKCI (PKC iota) (Homo sapiens, UniProt P41743)
Chain of PRKCI (PKC iota) (P41743 whole entry): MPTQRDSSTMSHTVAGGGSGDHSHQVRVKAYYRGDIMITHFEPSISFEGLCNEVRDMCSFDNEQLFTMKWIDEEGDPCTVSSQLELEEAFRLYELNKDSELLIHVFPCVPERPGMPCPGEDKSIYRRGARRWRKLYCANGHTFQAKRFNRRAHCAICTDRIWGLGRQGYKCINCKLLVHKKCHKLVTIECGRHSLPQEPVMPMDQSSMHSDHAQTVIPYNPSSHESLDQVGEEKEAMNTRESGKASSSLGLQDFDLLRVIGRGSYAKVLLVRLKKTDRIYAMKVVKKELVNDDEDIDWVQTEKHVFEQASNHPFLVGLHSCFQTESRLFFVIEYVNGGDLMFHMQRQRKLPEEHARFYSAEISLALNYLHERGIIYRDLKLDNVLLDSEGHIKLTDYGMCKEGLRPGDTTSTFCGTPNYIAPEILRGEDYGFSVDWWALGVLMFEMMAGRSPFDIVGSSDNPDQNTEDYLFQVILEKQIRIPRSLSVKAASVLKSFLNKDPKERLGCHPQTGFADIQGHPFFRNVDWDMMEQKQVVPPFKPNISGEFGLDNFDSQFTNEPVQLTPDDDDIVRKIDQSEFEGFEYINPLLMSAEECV
Experimental: as §1

AURKB (Aurora B) = biological target: T22, AURKB (Aurora B) (Homo sapiens, UniProt Q96GD4)
T22 construct: purchased Life Technologies
Experimental: as §1

LYN B = LYN B (Homo sapiens, UniProt P07948)
Experimental: as §1

HIPK4 = biological target: T23, HIPK4 (Homo sapiens, UniProt Q8NE63)
T23 construct: purchased Life Technologies (SelectScreen service)
Experimental: as §1

EPHA8 = biological target: T24, EPHA8 (Homo sapiens, UniProt P29322)
T24 construct: purchased Life Technologies (SelectScreen Whole Panel service)
Experimental: as §1

EPHA1 = biological target: T25, EPHA1 (Homo sapiens, UniProt P21709)
T25 construct: purchased Life Technologies
Experimental: as §1

FGFR3 K650E = biological target: T26, FGFR3 K650E (Homo sapiens, UniProt P22607, K650E)
T26 construct: purchased Life Technologies (SelectScreen Whole Panel service)
T26 sequence (P22607 23-806 K650E): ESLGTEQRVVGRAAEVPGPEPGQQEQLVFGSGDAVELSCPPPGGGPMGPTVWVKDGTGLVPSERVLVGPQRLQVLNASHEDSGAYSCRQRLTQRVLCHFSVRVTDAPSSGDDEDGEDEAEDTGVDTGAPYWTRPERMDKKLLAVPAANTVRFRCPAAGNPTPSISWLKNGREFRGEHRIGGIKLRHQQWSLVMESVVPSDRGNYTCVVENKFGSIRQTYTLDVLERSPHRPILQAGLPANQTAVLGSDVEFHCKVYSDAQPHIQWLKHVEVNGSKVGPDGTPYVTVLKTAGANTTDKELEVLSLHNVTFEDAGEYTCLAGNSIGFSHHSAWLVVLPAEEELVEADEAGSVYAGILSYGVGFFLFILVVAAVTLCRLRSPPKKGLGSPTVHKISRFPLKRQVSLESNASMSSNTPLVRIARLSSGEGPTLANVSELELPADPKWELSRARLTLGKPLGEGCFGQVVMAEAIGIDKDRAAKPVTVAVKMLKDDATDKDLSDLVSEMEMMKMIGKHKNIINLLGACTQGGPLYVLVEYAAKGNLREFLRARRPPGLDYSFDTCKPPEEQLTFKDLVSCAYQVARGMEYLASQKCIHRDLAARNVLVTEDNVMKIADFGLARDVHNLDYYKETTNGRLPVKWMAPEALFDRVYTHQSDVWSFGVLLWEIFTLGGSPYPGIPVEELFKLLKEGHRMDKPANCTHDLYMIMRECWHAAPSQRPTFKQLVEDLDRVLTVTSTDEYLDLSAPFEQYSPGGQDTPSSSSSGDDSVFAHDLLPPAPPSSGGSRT
Experimental: as §1

ABL1 = biological target: T27, ABL1 (Homo sapiens, UniProt P00519)
T27 construct: purchased Life Technologies (SelectScreen Whole Panel service)
Experimental: as §1

PRKCH (PKC eta) = PRKCH (PKC eta) (Homo sapiens, UniProt P24723)
Experimental: as §1

AMPK (A1/B2/G3) = AMPK (A1/B2/G3) (Homo sapiens, UniProt Q13131)
Experimental: as §1

CAMK2B (CaMKII beta) = biological target: T28, CAMK2B (CaMKII beta) (Homo sapiens, UniProt Q13554)
T28 construct: purchased Life Technologies (SelectScreen Whole Panel service)
Experimental: as §1

KIT V560G = biological target: T29, KIT V560G (Homo sapiens, UniProt P10721, V560G)
T29 construct: purchased Life Technologies
T29 sequence (P10721 26-976 V560G): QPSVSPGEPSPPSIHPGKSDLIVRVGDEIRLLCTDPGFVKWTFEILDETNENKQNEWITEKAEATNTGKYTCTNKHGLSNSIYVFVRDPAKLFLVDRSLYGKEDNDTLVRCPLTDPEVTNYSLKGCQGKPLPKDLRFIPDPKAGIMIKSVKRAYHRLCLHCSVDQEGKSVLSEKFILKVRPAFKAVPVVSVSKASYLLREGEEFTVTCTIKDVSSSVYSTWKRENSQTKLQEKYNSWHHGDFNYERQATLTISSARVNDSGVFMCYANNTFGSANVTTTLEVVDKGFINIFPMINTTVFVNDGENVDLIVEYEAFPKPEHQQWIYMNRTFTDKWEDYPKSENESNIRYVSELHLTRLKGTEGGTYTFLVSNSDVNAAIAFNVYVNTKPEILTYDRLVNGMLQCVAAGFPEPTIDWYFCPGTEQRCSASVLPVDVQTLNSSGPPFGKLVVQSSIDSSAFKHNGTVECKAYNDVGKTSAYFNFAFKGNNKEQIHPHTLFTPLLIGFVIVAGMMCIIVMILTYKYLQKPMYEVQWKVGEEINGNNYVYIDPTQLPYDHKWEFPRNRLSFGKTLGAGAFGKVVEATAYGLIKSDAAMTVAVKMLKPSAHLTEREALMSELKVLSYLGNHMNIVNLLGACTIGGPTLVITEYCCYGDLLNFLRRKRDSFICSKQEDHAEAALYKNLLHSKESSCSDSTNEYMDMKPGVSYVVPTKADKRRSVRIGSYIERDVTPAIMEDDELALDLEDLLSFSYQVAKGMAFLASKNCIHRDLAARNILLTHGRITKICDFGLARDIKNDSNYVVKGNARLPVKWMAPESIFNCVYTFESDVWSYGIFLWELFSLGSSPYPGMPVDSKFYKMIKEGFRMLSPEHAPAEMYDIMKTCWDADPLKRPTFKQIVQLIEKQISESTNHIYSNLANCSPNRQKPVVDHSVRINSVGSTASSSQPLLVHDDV
Experimental: as §1

MUSK = biological target: T30, MUSK (Homo sapiens, UniProt O15146)
T30 construct: purchased Life Technologies (SelectScreen Whole Panel service)
Experimental: as §1

MARK3 = biological target: T31, MARK3 (Homo sapiens, UniProt P27448)
T31 construct: purchased Life Technologies
Experimental: as §1

RET A883F = biological target: T32, RET A883F (Homo sapiens, UniProt P07949, A883F)
T32 construct: purchased Life Technologies (SelectScreen service)
Experimental: as §1

COc1ccc2[nH]c3c(=O)[nH]c4ccc(O)cc4c3c2c1 [Compound 55, 2-Hydroxy-10-methoxy-5,7-dihydro-6H-indolo[2,3-c]quinolin-6-one]
inhibition at 1 µM (IKBKE (IKK epsilon)): 17% | inhibition at 1 µM (CSNK1D (CK1 delta)): 81% | inhibition at 1 µM (HIPK2): 74% | inhibition at 1 µM (CHEK1 (CHK1)): 19% | inhibition at 1 µM (ALK): 24% | inhibition at 1 µM (ERBB2 (HER2)): 2% | inhibition at 1 µM (EPHB2): 21% | inhibition at 1 µM (RPS6KA3 (RSK2)): 83% | inhibition at 1 µM (RET Y791F): 96% | inhibition at 1 µM (ACVR1B (ALK4)): -13% | inhibition at 1 µM (PTK2B (FAK2)): 46% | inhibition at 1 µM (FER): 56% | inhibition at 1 µM (HIPK3 (YAK1)): 35% | inhibition at 1 µM (SRC): 37% | inhibition at 1 µM (JAK2): 54% | inhibition at 1 µM (PRKCN (PKD3)): 40% | inhibition at 1 µM (DYRK4): 42% | inhibition at 1 µM (TYK2): 51% | inhibition at 1 µM (STK3 (MST2)): 99% | inhibition at 1 µM (TNK1): 30% | inhibition at 1 µM (AXL): 37% | inhibition at 1 µM (RET V804L): 98% | inhibition at 1 µM (JAK2 JH1 JH2): 33% | inhibition at 1 µM (NTRK3 (TRKC)): 93% | inhibition at 1 µM (PRKCI (PKC iota)): 6% | inhibition at 1 µM (AURKB (Aurora B)): 41% | inhibition at 1 µM (LYN B): 67% | inhibition at 1 µM (HIPK4): 24% | inhibition at 1 µM (EPHA8): 10% | inhibition at 1 µM (EPHA1): 33% | inhibition at 1 µM (FGFR3 K650E): 43% | inhibition at 1 µM (ABL1): 43% | inhibition at 1 µM (PRKCH (PKC eta)): 15% | inhibition at 1 µM (AMPK (A1/B2/G3)): 67% | inhibition at 1 µM (CAMK2B (CaMKII beta)): 12% | inhibition at 1 µM (KIT V560G): 27% | inhibition at 1 µM (MUSK): 18% | inhibition at 1 µM (MARK3): 31% | inhibition at 1 µM (RET A883F): 85%
